{
  "source": "patent US20040009939A1",
  "about": "“Methods of enhancing immune induction involving MDA-7” (Board of Regent, The University of Texas System, priority 2002, published 2004)",
  "format_in_all_cases": "cell-based, human",
  "key": {"[1]": {"test_system": "A549 and H1299 lung cancer cell lines", "assay": "XTT cellular viability assay", "details": "2-AP (10 mM) alone", "protocol": "(§1) Apoptotic cells by propidium iodide staining and FACS analysis were measured. Cells were harvested, pelleted by centrifugation and resuspended in phosphate-buffered saline containing 50 μg/ml propidium iodide, 0.1% Triton X-100, and 0.1% sodium citrate. Samples were stored at 4° C. for 16 hours and vortexed prior to FACS analysis (Becton-Dickenson FACScan, Mountain View, Calif.; FL-3 channel). Cellular viability was assessed with the XTT assay by growing cells in 96-well plates at 100 μL volume/well. After treatment with Ad-mda7 or control vectors, cells were incubated with the tetrazolium salt XTT according to the Roche protocol (Roche Diagnostics, Mannheim, Germany). Viability was assessed spectrophotometrically on an enzyme-linked immunosorbent assay (ELISA) plate reader.\n(§2) Apoptotic cells were measured by propidium iodide staining and FACS analysis. Cells were harvested, pelleted by centrifugation and resuspended in phosphate-buffered saline (PBS) containing 50 μg/ml propidium iodide, 0.1% Triton X-100, and 0.1% sodium citrate. Samples were stored at 4° C. for 16 hours and vortexed prior to FACS analysis (Becton-Dickenson FACScan, Mountain View, Calif.; FL-3 channel). Cellular viability was assessed with the XTT assay by growing cells in 96-well plates in 100 μl volume/well. […] Viability was assessed spectrophotometrically on an enzyme-linked immunosorbent assay (ELISA) plate reader."}, "[2]": {"test_system": "eIF-2α protein synthesis inhibition", "assay": "Measurement of cellular protein synthesis", "details": "with 2-AP", "protocol": "Cells were treated with Ad-mda7 or Ad-Luc for 48 hrs. Where indicated, cells were treated with 1 mM 2-AP for 48 hrs. Measurement of protein synthesis was performed as previously described (14). After treatment, approximately 1×10^6 cell equivalents were incubated with L-[U-^14C] amino acid mixture (Amersham, Piscataway, N.J.) at 2 μCi/ml for 10 min at 37° C. The reaction was terminated by the addition of 20% (wt/vol) trichloroacetic acid and the radioactivity in the acid-precipitable fraction was measured in a scintillation counter."}, "PKR": {"test_system": "PKR", "assay": "Immunoblot and confocal analysis of PKR, PKR substrates and caspases", "details": "A549; immunoprecipitation; 10 mM 2-AP", "protocol": "Forty-eight hours after transfection, cell extracts were prepared for immunoblot assays as previously described (Pataer et al, 2000). The following antibodies were used: Bc1-2, Bak, Bax, PKR (K-17), eIF-2α, β-actin, p38 (A-12), phosphospecific p38 (D-8), stat1 (C-136), phosphospecific stat1 (A-2), stat3 (F-2), phosphospecific stat3 (B-7), anti-Tyk2 (C-20) and phosphospecific anti-Tyk (PY-99) (Santa Cruz Biotechnology, Santa Cruz, Calif.); Caspase 3, caspase-9, caspase-8 and Bid (PharMingen , San Diego, Calif.) and the phosphospecific PKR [pT451] and eIF-2a [pS51] (BioSource International, Camarillo, Calif.). The polyclonal and monoclonal antibodies to MDA-7 were obtained from Introgen Therapeutics, Inc. (Houston, Tex.).\n4×10^5 cells/well were grown on chamber slides overnight and infected with Ad-mda7, Ad-Luc or PBS. 48 hrs later cells were washed with PBS and fixed overnight in 4% paraformaldehyde. Cells were then permeabilized for 20 min at 4° C. with 0.2% triton-X10O and blocked with 5% normal horse serum and 1% normal goat serum. Rabbit polyclonal anti-MDA7 and mouse monoclonal anti-PKR(B-10) were incubated overnight at 4° C. and developed with Rhodamine or FITC goat anti-rabbit IgG for 30-45 min at 37° C. Cells were then visualized under confocal microscopy."}, "[3]": {"test_system": "A549 (wt p53), H1299 (null p53), and H322J (mutant p53) lung cancer cells", "assay": "Apoptosis by propidium iodide staining and FACS in lung cancer cells", "details": "combination with 2-AP", "protocol": "as §1, §2"}, "NF-κB": {"test_system": "NF-κB", "assay": "NF-κB activation (electromobility shift assay)", "protocol": "Studies were conducted to determine whether transgenic MDA-7 expression results in NF-κB activation, and to evaluate the role of NF-κB in protecting tumor cells from MDA-7 induced apoptosis."}, "H1299 cells": {"test_system": "H1299 cells", "assay": "MDA-7 secretion and trypan blue cytotoxicity with glycosylation and secretion inhibitors", "details": "for concentration that completely blocks secretion of MDA-7 protein: Ad-mda7 transduced H1299", "protocol": "Since glycosylated proteins generally acquire sugars during sorting through the ER and Golgi apparatus, the effect of glycosylation and secretion inhibitors on MDA-7 intracellular processing and subsequent secretion was evaluated. Tunicamycin inhibits the addition of sugars to proteins within the ER, while brefeldin A inhibits vesicle transport of proteins from the ER to the Golgi. Both disrupt the secretion of proteins. The cytotoxicity caused by Ad-mda7 in the presence of these glycosylation and secretion inhibitors was evaluated. Tunicamycin and brefeldin A levels were titrated until inhibition of secretion of MDA-7 protein could be detected. As shown in FIGS. 26A and 26B, treatment of H1299 cells with 2 μg/ml tunicamycin completely blocks secretion of MDA-7 protein, whereas less than 1 μg/ml of brefeldin A is required for this effect. Note that blocking secretion using either drug results in substantial intracellular accumulation of MDA-7 protein. […] The enhanced killing may be due to the tunicamycin sensitizing cells to apoptotic death. […] Therefore, secreted MDA-7 protein is unable to induce killing in cancer cells and is not required for Ad-mda7 mediated apoptosis and eventual killing of cancer cells (FIG. 32B)."}, "H1299 and A549 cells": {"test_system": "H1299 and A549 cells", "assay": "Mitochondrial membrane potential (TMRE) and apoptosis", "details": "Staurosporine 1 μM", "protocol": "Apoptotic cells were measured by propidium iodide staining and FACS analysis. Cells were harvested, pelleted by centrifugation and resuspended in phosphate-buffered saline (PBS) containing 50 μg/ml propidium iodide, 0.1% Triton X-100, and 0.1% sodium citrate. Samples were stored at 4° C. for 16 hours and vortexed prior to FACS analysis (Becton-Dickenson FACScan, Mountain View, Calif.; FL-3 channel). Cellular viability was assessed with the XTT assay by growing cells in 96-well plates in 100 μl volume/well. On day one, cells were transduced with Ad-mda-7, Ad-p53 or control vectors. On day two, the cells were incubated with the tetrazolium salt XTT for 4 to 24 hours according to the Roche protocol (Roche Diagnostics, Mannheim, Germany). Viability was assessed spectrophotometrically on an enzyme-linked immunosorbent assay (ELISA) plate reader.\nThe potential-sensitive fluorochrome tetramethylrhodamine, ethylester, perchlorate (TMRE) (Molecular Probes, Eugene, Oreg.) was used to measure ΔΨm. Cells were incubated with 25 nM TMRE for 30 minutes at 37° C. in the dark, washed in PBS, and analyzed by FACS on the FL-2 channel (FACScan: Becton Dickinson, Mountain View, Calif.)."}, "HUVEC and HMVEC cells": {"test_system": "HUVEC and HMVEC cells", "assay": "Endothelial cell differentiation (tube formation) assay", "details": "HUVEC and HMVEC; 24 h", "protocol": "Endothelial cell differentiation (tube formation) assays were done using an in vitro angiogenesis assay kit (Chemicon, Temecula, Calif.). Briefly, HUVEC and HMVEC cells were grown to 80% confluency, collected, resuspended in growth medium and plated at a concentration of 2×10^4 cells/well in a 96-well plate coated with matrigel (Chemicon, Temecula, Calif.). To the wells, varying concentrations of MDA-7 protein were added and incubated for 24 h at 37° C. Wells that were not treated with MDA-7 protein served as a negative control. The ability of sMDA-7 to inhibit tube formation was determined and quantitated by counting the number of tubes under bright field microscopy. All samples were tested in duplicate. For comparative studies using MDA-7 and endostatin (Calbiochem), cells were plated as described above and exposed to varying concentration of the proteins. […] All other experimental procedures were the same as described above."}},
  "data": [
    {"molecule": "Nc1ncc2[nH]cnc2n1.O=[N+]([O-])O", "note": "[2-AP, 2-Aminopurine Nitrate Salt]", "values": [
      {"measurement": "cell viability", "setting": "[1]", "value": "no effect on cell viability"},
      {"measurement": "protein synthesis in Ad-mda7 treated cells", "setting": "[2]", "value": "reversal of eIF-2α protein synthesis inhibition"},
      {"measurement": "PKR and eIF-2α phosphorylation in Ad-mda7 treated cells", "setting": "PKR", "value": "attenuated PKR activation with inhibition of both PKR and eIF-2α phosphorylation"},
      {"measurement": "apoptosis induction and cell killing in cells treated with Ad-mda7", "setting": "[3]", "value": "blocked apoptosis induction and cell killing in a dose dependent manner"}
    ]},
    {"molecule": "CC1=C(CC(=O)O)c2cc(F)ccc2/C1=C\\c1ccc([S+](C)[O-])cc1", "note": "(stereo not drawn) [Sulindac]", "values": [
      {"measurement": "TNF-mediated NF-κB activation", "setting": "NF-κB", "value": "inhibited TNF-mediated NF-κB activation in a dose-dependent manner"},
      {"measurement": "activation of the NF-κB pathway", "setting": "NF-κB", "value": "inhibited the activation of the NF-κB pathway"}
    ]},
    {"molecule": "C[C@H]1CCC/C=C/[C@@H]2C[C@H](O)C[C@H]2[C@H](O)/C=C/C(=O)O1", "note": "[brefeldin A]", "values": [
      {"measurement": "concentration that completely blocks secretion of MDA-7 protein", "setting": "H1299 cells", "value": "less than 1 μg/ml"}
    ]},
    {"molecule": "CN[C@@H]1C[C@H]2O[C@@](C)([C@@H]1OC)n1c3ccccc3c3c4c(c5c6ccccc6n2c5c31)C(=O)NC4", "note": "[staurosporine]", "values": [
      {"measurement": "MMP changes and apoptosis", "setting": "H1299 and A549 cells; A549 cells", "value": "induces MMP changes and apoptosis"},
      {"measurement": "MMP changes and apoptosis", "setting": "H1299 and A549 cells; H1299 cells", "value": "able to induce MMP changes and the induction of apoptosis"}
    ]},
    {"molecule": "endostatin [reference compound]", "values": [
      {"measurement": "inhibition of endothelial tube formation", "setting": "HUVEC and HMVEC cells", "value": "the inhibitory effect by endostatin was not observed"}
    ]},
    {"molecule": "tunicamycin", "values": [
      {"measurement": "cell death, inhibitor alone", "setting": "H1299 cells; 2 μg/ml tunicamycin, trypan blue", "value": "did not induce death"},
      {"measurement": "concentration that completely blocks secretion of MDA-7 protein", "setting": "H1299 cells", "value": 2, "unit": "µg/mL"}
    ]}
  ]
}
